These results are taken from patent publication US20070254288A1, “Diagnostic methods for pain sensitivity and chronicity and for tetrahydrobiopterin-related disorders” (The General Hospital Corporation, priority 2005, published 2007).

“Also recorded” adds a separate entry of the source.

The nature of series [1]: Observation of general well-being, body weight, gait, activity. Format: in vivo, rat. The following applies: acute single or daily treatment, 180 mg/kg i.p.; 180 mg/kg.
The subject of another series is Rats. Nature of the series: Forced Swim Test. The following applies: 180 mg/kg i.p., 3 injections. The class given is in vivo, rat. On the procedure: FIGS. 8A-8D show the effects of DAHP injection. […] DAHP (250 μg/kg/h) was delivered to the lumbar spinal cord via a chronically implanted spinal catheter connected to an osmotic Alzet pump. Infusion started right after SNI surgery and continued 14 days, flow rate 5 μl/h (n=8, p<0.05). […] Effect versus time AUCs were used for statistical comparisons. […] Rats (n=7 per condition) received 3 separate injections of DAHP (180 mg/kg, i.p.), at 1 hr, 19 hrs, and 23 hrs after the first exposure to forced swimming. This commonly used treatment regimen identifies in rats agents with antidepressant or pro-depressant effects in humans (Mague et al., J Pharmacol Exp Ther 305:323-330 (2003)). Retest sessions (forced swim for 300 sec) occurred 24 hr after the first swim exposure and were videotaped from the side of the water cylinders and scored by raters unaware of the treatment condition. Rats were rated at 5 sec intervals throughout the duration of the retest session; at each 5 sec interval the predominant behavior was assigned to one of four categories: immobility, swimming, climbing, or diving. The sum of these scores are shown for each modality. For all panels, error SEM.

A further series addresses GTP cyclohydrolase. The conditions noted are these: determined in vitro (Kolinsky and Gross 2004; Xie et al. 1998); read-out: IC50 range for GTP cyclohydrolase inhibition; cited from earlier work.
The test system of series [2] is Sprague Dawley rats. Nature of the series: Spinal nerve ligation (SNL) model: mechanical and cold allodynia. The class given is in vivo, rat. The conditions noted are these: 180 mg/kg i.p. The protocol: (§1) Adult male Sprague Dawley rats (150-200 g, Charles River Laboratories) were used. For the SNI model two branches of the sciatic nerve, the common peroneal and the tibial nerve, were ligated and sectioned distally. For the CCI model the sciatic nerve was constricted with three Dexon 4/0 ligatures. For the SNL model, the L5 spinal nerve was tightly ligated. All surgical procedures were under isoflurane anesthesia. For the Formalin test 50 μl of 5% formaldehyde solution were injected into a hindpaw and flinches were counted per minute up to 60 min. Paw inflammation was induced with 50 μl complete Freund's adjuvant (CFA) injected into a hindpaw. […] Mechanical allodynia was assessed with graded strength monofilament von Frey hairs (0.0174-20.9 gram, log scaled), cold allodynia with the acetone test and heat hyperalgesia with the Hargreaves test. […]
(§2) Animals were fully habituated and experiments performed blinded. Threshold for eliciting a withdrawal reflex to graded strength monofilament von Frey hairs (0.0174-20.9 g) was measured to assess mechanical allodynia. To measure cold allodynia, a drop of acetone was applied to the plantar hindpaw, and the time the animal spent licking, shaking or lifting the paw was measured (Tegeder et al., J Neurosci 24:1637-1645 (2004)). Paw withdrawal latency to radiant heat (lamp with 8 V, 50 W) assessed heat evoked pain (Ugo Basile). […]

In series [3] the test system is BH4 synthesis (GTP cyclohydrolase activity). Nature of the series: Tissue concentrations of neopterin and biopterin in L4/5 DRGs (LC/MS-MS). The class given is in vivo, rat. The conditions noted are these: single 180 mg/kg i.p. 3 hours before dissection, 180 mg/kg. The protocol:
Homogenized tissue was oxidized with iodine, and pteridines were extracted on Oasis MCX cartridges. Concentrations of total biopterin, neopterin, and the internal standard rhamnopterin were determined by LC/MS-MS. LC analysis under gradient conditions on a Nucleosil C8 column; MS-MS analyses on an API 4000 Q TRAP triple quadrupole mass spectrometer. Precursor-to-product ion transitions of m/z 236→192 for biopterin, m/z 252→192 for neopterin, m/z 265→192 for rhamnopterin were used for the MRM. Linearity from 0.1-50 ng/ml. The coefficient of correlation for all measured sequences was at least 0.99. The intra-day and inter-day variability was <10%.

The test system of another series is nitric oxide production. Nature of the series: Nitric oxide production in L4/5 DRGs after SNI. The following applies: 7 d after SNI, once daily treatment. The class given is in vivo, rat.
In series [4] the test system is Sprague Dawley rats. Briefly: Chronic constriction injury (CCI) model: mechanical and cold allodynia. Format: in vivo, rat. The following applies: 180 mg/kg i.p. The protocol:
as §1, §2

The subject of series [5] is Sprague Dawley rats. Briefly: Formalin test: flinching and cFos immunoreactive dorsal horn neurons. The class given is in vivo, rat. The protocol: (§3) Adult male Sprague Dawley rats (150-200 g, Charles River Laboratories) were used. For the SNI model two branches of the sciatic nerve, the common peroneal and the tibial nerve, were ligated and sectioned distally. For the CCI model the sciatic nerve was constricted with three Dexon 4/0 ligatures. For the SNL model, the L5 spinal nerve was tightly ligated. All surgical procedures were under isoflurane anesthesia. For the Formalin test 50 μl of 5% formaldehyde solution were injected into a hindpaw and flinches were counted per minute up to 60 min. Paw inflammation was induced with 50 μl complete Freund's adjuvant (CFA) injected into a hindpaw. Nociceptive analysis was done blinded, and animals were fully habituated to the room and test cages. Mechanical allodynia was assessed with graded strength monofilament von Frey hairs (0.0174-20.9 gram, log scaled), cold allodynia with the acetone test and heat hyperalgesia with the Hargreaves test. Drugs (Sigma) were injected intraperitoneally or intrathecally through a spinal catheter, osmotic pumps were used for infusion. Control animals received vehicle. L4/5 DRG and spinal cord tissue was processed for QRT-PCR, Western blotting, in situ hybridization and immunofluorescence studies.
(§4) For the Formalin test 50 μl of 5% formaldehyde solution were injected into one hindpaw and flinches were counted per minute up to 60 min. […]

Series [6] deals with Sprague Dawley rats. Briefly: Nociceptive thresholds in naïve animals (von Frey, radiant heat). Format: in vivo, rat. The conditions noted are these: naïve animals, 180 mg/kg i.p.; 180 mg/kg. The protocol: (§5) Animals were fully habituated and experiments performed blinded. Threshold for eliciting a withdrawal reflex to graded strength monofilament von Frey hairs (0.0174-20.9 g) was measured to assess mechanical allodynia. To measure cold allodynia, a drop of acetone was applied to the plantar hindpaw, and the time the animal spent licking, shaking or lifting the paw was measured (Tegeder et al., J Neurosci 24:1637-1645 (2004)). Paw withdrawal latency to radiant heat (lamp with 8 V, 50 W) assessed heat evoked pain (Ugo Basile).
(§6) DAHP was dissolved in 1:1 polyethylene glycol (PEG400) and 1×PBS, pH 7.4 (15 mg/ml) and administered i.p. or intrathecally (250 μg/kg/h; 5 μl/h). For all i.t. injections/infusions a spinal catheter (Recathco) was used and implanted as described (Kunz et al., Pain 110:409-418 (2004)). Infusions with an osmotic pump (Alzet). 6R-BH4 in ACSF was injected i.t. (10 μg, single 10 μl injection). N-acetyl-serotonin in 1×PBS pH 7.4 containing 3% ethanol was delivered by i.t. infusion (100 μg/kg/h; 5 μl/h). Control animals received the appropriate vehicle. All drugs from Sigma-Aldrich.

Series [7] concerns Sprague Dawley rats. Nature of the series: CFA-induced paw inflammation: thermal hyperalgesia (Hargreaves). The class given is in vivo, rat. On the procedure: Adult male Sprague Dawley rats (150-200 g, Charles River Laboratories) were used. For the SNI model two branches of the sciatic nerve, the common peroneal and the tibial nerve, were ligated and sectioned distally. For the CCI model the sciatic nerve was constricted with three Dexon 4/0 ligatures. For the SNL model, the L5 spinal nerve was tightly ligated. All surgical procedures were under isoflurane anesthesia. For the Formalin test 50 μl of 5% formaldehyde solution were injected into a hindpaw and flinches were counted per minute up to 60 min. Paw inflammation was induced with 50 μl complete Freund's adjuvant (CFA) injected into a hindpaw. Nociceptive analysis was done blinded, and animals were fully habituated to the room and test cages. Mechanical allodynia was assessed with graded strength monofilament von Frey hairs (0.0174-20.9 gram, log scaled), cold allodynia with the acetone test and heat hyperalgesia with the Hargreaves test. […]
as §4, §5
Data are means ±SEM. […] Areas under the “effect versus time” curves (AUC) were calculated using the linear trapezoidal rule and compared with Student's t-test or univariate analysis of variance (ANOVA) with subsequent t-tests employing a Bonferroni alpha-correction for multiple comparisons. All other data were analyzed with univariate ANOVA or ANOVA for repeated measurements. […]

A further series concerns serotonin. Briefly: Serotonin concentrations in spinal cord and brain stem. Format: in vivo, rat. The conditions noted are these: data not shown.
The nature of series [8]: Plasma and CSF concentrations of DAHP (LC/MS-MS). The class given is in vivo, rat. The conditions noted are these: after i.p. injection of 180 mg/kg; compared with IC50 range 100-300 μM. The protocol: Concentrations of DAHP were determined LC/MS-MS on a tandem quadrupole mass spectrometer (PE Sciex API 3000; Applied Biosystems). Extraction was by acetonitrile precipitation; chromatographic separation was performed on a Nucleosil C18 Nautilus column (125×4 mm I.D., 5 μm particle size, 100 Å pore size). Mobile phase was acetonitrile:water (80:20%, v/v), and formic acid (0.1%, v/v). Flow rate was 0.2 ml/min, and injection volume was 5 μl. DAHP eluted at 4.7 min. Mass spectrometer in positive ion mode, 5200 V, 400° C., auxiliary gas flow 6 l/min. The mass transition for the MRM was m/z 127→60. Quantification with Analyst software V1.1 (Applied Biosystems). Coefficient of variation over the calibration range of 10-4000 ng/ml <5%.

In series [9] the test system is Sprague Dawley rats. Nature of the series: Spared nerve injury (SNI) model: mechanical (von Frey) and cold (acetone) allodynia. Format: in vivo, rat. The protocol: as §3, §5, §6
Data are means ±SEM. The number of animals per group was 9-12. Areas under the “effect versus time” curves (AUC) were calculated using the linear trapezoidal rule and compared with Student's t-test or univariate analysis of variance (ANOVA) with subsequent t-tests employing a Bonferroni alpha-correction for multiple comparisons. All other data were analyzed with univariate ANOVA or ANOVA for repeated measurements. P at 0.05 for all tests.

For another series, the system named is GCH1. Briefly: LPS induction of GCH1 in cells of haplotype carriers and non-carriers. Format: cell-based, human. The conditions noted are these: cells of individuals with versus without the pain protective haplotype.
Where [10] appears, read: repeated daily injections, measured two-three hours after injection.

A word on the IC50: it is the point on the concentration scale where inhibition reaches its midpoint.

Turning to `Nc1cc(O)nc(N)n1` [DAHP, 2,4-diamino-6-hydroxypyrimidine], in series [1], the “general well-being, body weight, gait, activity” value was “No deleterious effect; also recorded: had no effect”. Also, in the series with Rats, the “performance in the forced swim test” value was “had no effect”. For the same compound, the IC50 on GTP cyclohydrolase is 100 to 300 µM. Moreover, the “mechanical and cold allodynia” value is “analgesic effects; also recorded: dose-dependent reductions in mechanical and cold allodynia” in the series with Sprague Dawley rats [2]; “analgesic effects; also recorded: dose-dependent reductions in mechanical and cold allodynia” with Sprague Dawley rats [4]; “reduces mechanical and cold allodynia” with Sprague Dawley rats [9] (continuous intrathecal infusion 250 μg/kg/h, 14 days from SNI surgery). In addition, the “biopterin levels in ipsilateral L4/5 DRGs” value in series [3] (24 h after CFA) is “reduced neopterin and biopterin; also recorded: significantly reduces elevated biopterin levels”. Besides, the “neopterin levels in ipsilateral L4/5 DRGs” value in series [3] (24 h after CFA) was “reduced neopterin and biopterin; also recorded: completely prevents the inflammation-evoked increase of neopterin”. Moreover, in [3] (7 days after SNI), the “biopterin levels in L4/5 DRGs” value is “reduced neopterin and biopterin; also recorded: significantly reduces biopterin levels”. Also, the “neopterin levels in L4/5 DRGs” value in [3] (7 days after SNI) was “reduced neopterin and biopterin; also recorded: completely prevents the nerve injury induced increases in neopterin”. Besides, the “nitric oxide levels in L4/5 DRGs” value in the series with nitric oxide production was “normalization of NO levels; also recorded: prevented by DAHP treatment”. The formalin-induced flinching behavior entry in the series with Sprague Dawley rats [5] (180 mg/kg i.p. before formalin, first and second phases) was “significantly reduced formalin-induced flinching behavior in both phases; also recorded: significantly reduces the flinching behavior in the first and second phases”. In addition, in the series with Sprague Dawley rats [5] (180 mg/kg i.p., two hours after formalin injection), the “number of cFos immunoreactive neurons in ipsilateral dorsal horn” value is recorded as “reduced number of cFOS immunoreactive neurons; also recorded: significant reduction in the number of cFos immunoreactive neurons”. Besides, the “mechanical threshold and radiant heat paw withdrawal latency” value with Sprague Dawley rats [6] was “failed to modify mechanical and thermal threshold; also recorded: did not change the mechanical threshold for paw withdrawal or radiant heat evoked paw withdrawal latency”. Moreover, the thermal hyperalgesia result with Sprague Dawley rats [7] (180 mg/kg i.p., before CFA and 24 hours after CFA) is recorded as “significantly reduced thermal hyperalgesia; also recorded: reduce CFA-evoked heat hyperalgesia”; in the series with Sprague Dawley rats [7] (single intrathecal injection of 1 mg/kg, 1 mg/kg), “reduced thermal hyperalgesia”. In addition, the “serotonin concentrations in spinal cord and brain stem” value in the series on serotonin is given as “did not, however, significantly reduce serotonin concentrations”. Besides, in [8], the “plasma and CSF concentrations” value is listed as “within the IC50 range”. Also, the “mechanical and cold pain hypersensitivity, established” value in the series with Sprague Dawley rats [9] (180 mg/kg/d i.p. starting 17 days after nerve injury) was “produced a significant reduction of mechanical and cold pain hypersensitivity; also recorded: decreases pain hypersensitivity”. The “relative efficacy, extent of return to pre-surgery baseline values” in the series on Sprague Dawley rats [9] (SNI model, versus comparators measured earlier (Decosterd et al. 2004)) is “exceeds that of non-sedating doses of morphine, gabapentin, amitriptyline, and carbamazepine”. Further, the “analgesia on repeated daily administration” value in the series on Sprague Dawley rats [9] (SNI, repeated daily administration) is reported as “continues to produce analgesia without obvious loss of activity”. In the series with Sprague Dawley rats [9] (SNI, repeated daily i.p. injections), the “dose dependence of effect on mechanical and cold allodynia” value is “dose dependent efficacy; also recorded: dose-dependent reductions in mechanical and cold allodynia”. Further, in the series on Sprague Dawley rats [9] (setting [10]), the “linear relationship between dose and effect (R), cold allodynia” value amounted to 0.754. In the series on Sprague Dawley rats [9] (setting [10]), the “linear relationship between dose and effect (R), mechanical allodynia” value was 0.709. The “time to reversal of mechanical and cold pain hypersensitivity” value in the series with Sprague Dawley rats [9] (single dose 180 mg/kg i.p. four days after SNI) was ≤ 60 min. In addition, the “mechanical (von Frey) and cold allodynia” value in the series with Sprague Dawley rats [9] (single dose 180 mg/kg i.p. four days after SNI, 180 mg/kg) is “significantly reduced mechanical (von Frey) and cold allodynia; also recorded: reverses mechanical and cold pain hypersensitivity”.

Regarding lipopolysaccharide [LPS], the GCH1 induction result in the series on GCH1 was “induced GCH1 to a lesser extent”.
